Measured values from US10752587B2, “Homobispiperidinyl derivatives as liver X receptor beta agonists, compositions and their use” (Merck Sharp & Dohme Corp., priority 2015, dated 2020).
pEC50: −log10 of the molar value. Like-named read-outs stand apart in the source and are kept apart here.

How the values were obtained:
[1] = molecular target: T1, glutathione-S-transferase (GST) tagged LXRbeta LBD (ligand binding domain) (Homo sapiens, UniProt P55055); experiment: LanthaScreen TR-FRET Liver X Receptor Coactivator Assay, co-activator recruitment to LXRbeta LBD; type: biochemical
T1 construct: purchased Invitrogen pv4658.pps
T1 sequence (P55055 222-460 limits assumed): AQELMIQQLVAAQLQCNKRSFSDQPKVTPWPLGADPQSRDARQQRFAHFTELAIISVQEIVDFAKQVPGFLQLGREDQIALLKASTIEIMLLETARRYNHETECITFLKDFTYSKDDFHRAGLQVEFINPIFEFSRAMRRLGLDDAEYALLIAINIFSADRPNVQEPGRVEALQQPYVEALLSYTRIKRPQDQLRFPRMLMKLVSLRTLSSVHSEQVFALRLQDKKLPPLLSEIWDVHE
Summary of the method: (§1)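 Compound-induced coactivator recruitment by the GST-fused ligand binding domain, detected as TR-FRET between Tb-labelled anti-GST antibody and fluorescein-tagged coactivator peptide after room-temperature incubation. IP and Emax expressed versus T0901317 as reference agonist.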

[2] = molecular target: T2, glutathione-S-transferase (GST) tagged LXRalpha LBD (ligand binding domain) (Homo sapiens, UniProt Q13133); experiment: LanthaScreen TR-FRET Liver X Receptor Coactivator Assay, co-activator recruitment to LXRalpha LBD; type: biochemical; conditions: for pEC50: read-out: LXR alpha IP
T2 construct: purchased Invitrogen pv4655
T2 sequence (Q13133 209-447 limits assumed): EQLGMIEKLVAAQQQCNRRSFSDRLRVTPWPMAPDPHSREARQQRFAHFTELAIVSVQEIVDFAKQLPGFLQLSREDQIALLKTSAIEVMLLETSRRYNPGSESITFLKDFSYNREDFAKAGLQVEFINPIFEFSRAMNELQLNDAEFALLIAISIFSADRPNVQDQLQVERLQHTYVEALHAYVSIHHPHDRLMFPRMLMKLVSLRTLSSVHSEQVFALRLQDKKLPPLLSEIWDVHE
Summary of the method: as §1

[3] = efficacy at max dose, in relation to reference dual agonist T0901317, read-out: LXR beta Activity @ max dose (%)
[4] = potency (Inflection Point, IP), co-activator recruitment to LXRbeta LBD, in relation to T0901317, read-out: LXR beta IP
[5] = efficacy at max dose, in relation to reference dual agonist T0901317, read-out: LXR alpha Activity @ max dose (%)
[6] = potency (Inflection Point, IP), co-activator recruitment to LXRalpha LBD, in relation to T0901317
[7] = efficacy at max dose, in relation to reference dual agonist T0901317

SMILES	Emax [1, 3]	pEC50 [1, 4]	Emax [2, 5]	pEC50 [2, 6]	LXR alpha IP (nM) [2, 6]	other results
CN(C)C(=O)c1ccc(N2CCC(CC3CCN(C(=O)[C@](O)(c4ccccc4)C4CCCC4)CC3)CC2)nc1Cl [Example 7-98, 2-chloro-6-[4-({1-[(2R)-2-cyclopentyl-2-hydroxy-2-phenylacetyl]piperidin-4-yl}methyl)piperidin-1-yl]-N,N-dimethylpyridine-3-carboxamide]						EC50 ([1]; LXR beta IP (nM), potency (Inflection Point, IP), co-activator recruitment to LXRbeta LBD, in relation to T0901317): 74 nM; Emax ([1]; read-out: LXR beta Activity @ max dose (%)): 76%; EC50 ([2]; LXR alpha IP (nM), potency (Inflection Point, IP), co-activator recruitment to LXRalpha LBD, in relation to T0901317): 1090 nM; Emax ([2]; read-out: LXR alpha Activity @ max dose (%)): 19%
CN(C)C(=O)c1ccc(N2[C@@H]3CC[C@H]2CN(CC2CCN(C(=O)[C@](O)(c4ccccc4)C(F)(F)F)CC2)C3)cc1Cl [Example 6-3, 2-chloro-N,N-dimethyl-4-[(1R,5S)-3-({1-[(2R)-3,3,3-trifluoro-2-hydroxy-2-phenylpropanoyl]piperidin-4-yl}methyl)-3,8-diazabicyclo[3.2.1]oct-8-yl]benzamide]	37%	5.59	18%		NO IP	
CN(C)C(=O)c1ccc(N2CCC(OC3CCN(C(=O)[C@](O)(c4ccccc4)C(F)(F)F)CC3)CC2)cc1Cl [Example 2-21, 2-chloro-N,N-dimethyl-4-[4-({1-[(2R)-3,3,3-trifluoro-2-hydroxy-2-phenylpropanoyl]piperidin-4-yl}oxy)piperidin-1-yl]benzamide]					NO IP	LXR beta Activity @ max dose (%) [1, 7]: 65%; LXR alpha Activity @ max dose (%) [2, 7]: 0%
CN(C)C(=O)c1ccc(N2CCC(CC3CCN(C(=O)[C@](O)(c4cccc(Br)c4)C(F)(F)F)CC3)CC2)cc1 [Example 2-143, 4-[4-({1-[(2R)-2-(3-bromo-phenyl)-3,3,3-trifluoro-2-hydroxy-propanoyl]piperidin-4-yl}methyl)piperidin-1-yl]-N,N-dimethyl-benzamide]	69%	7.34	23%	6.38		
CN(C)C(=O)c1ccc(N2CCC(CC3CCN(C(=O)C(O)(c4cccc(C#N)c4)C(F)(F)F)CC3)CC2)nc1Cl (centres unmarked) [Example 7-78, 2-chloro-6-[4-({1-[2-(3-cyanophenyl)-3,3,3-trifluoro-2-hydroxypropanoyl]piperidin-4-yl}methyl)piperidin-1-yl]-N,N-dimethylpyridine-3-carboxamide]	95%	8.22	31%	6.53		
CN(C)C(=O)c1ccc(N2CCC(CC3CCN(C(=O)[C@](O)(c4cccc(OC(F)F)c4)C(F)(F)F)CC3)CC2)cc1Cl [Example 2-116, 2-chloro-4-{4-[(1-{(2R)-2-[3-(difluoro-methoxy)phenyl]-3,3,3-trifluoro-2-hydroxy-propanoyl}piperidin-4-yl)methyl]piperidin-1-yl}-N,N-dimethyl-benzamide]	58%	8.15	20%	6.64		
CCOc1cccc([C@@](O)(C(=O)N2CCC(CC3CCN(c4ccc(C(=O)N(C)C)c(C5CC5)n4)CC3)CC2)C(F)(F)F)c1 [Example 7-12, 2-cyclopropyl-6-[4-({1-[(2R)-2-(3-ethoxyphenyl)-3,3,3-trifluoro-2-hydroxypropanoyl]piperidin-4-yl}methyl)piperidin-1-yl]-N,N-dimethylpyridine-3-carboxamide]	71%	7.62	6%		NO IP	
Cc1cc(N2CCC(CC3(C)CCN(C(=O)[C@](O)(c4cc(F)cc(Cl)c4)C(F)(F)F)CC3)CC2)ccc1C(=O)N(C)C [Example 2-75, 4-[4-({1-[(2R)-2-(3-chloro-5-fluorophenyl)-3,3,3-trifluoro-2-hydroxy-propanoyl]-4-methylpiperidin-4-yl}methyl)piperidin-1-yl]-N,N,2-trimethyl-benzamide]	80%	7.92	31%	6.78		
CN(C)C(=O)c1ccc(N2CCC(CC3CCN(S(=O)(=O)c4ccc(Cl)s4)CC3)CC2)cc1Cl [Example 13-9, 2-chloro-4-[4-({1-[(5-chlorothiophen-2-yl)-sulfonyl]piperidin-4-yl}methyl)piperidin-1-yl]-N,N-dimethylbenzamide]						pEC50 ([1]; co-activator recruitment to GST-LXRbeta LBD, TR-FRET, read-out: LXR beta IP (Inflection Point, potency)): 6.64; Emax ([1]; efficacy in relation to reference dual agonist T0901317, read-out: LXR beta Activity @ max dose): 20%; LXR alpha IP (Inflection Point, potency) ([2]; co-activator recruitment to GST-LXRalpha LBD, TR-FRET): NO IP; Emax ([2]; efficacy in relation to reference dual agonist T0901317, read-out: LXR alpha Activity @ max dose): 0%

Now from value to molecule, other results behind:

Emax [1, 3]	pEC50 [1, 4]	Emax [2, 5]	pEC50 [2, 6]	LXR alpha IP (nM) [2, 6]	SMILES	other results
78%	7.29	30%	5.93		CNC(=O)c1ccc(N2CCC(CC3CCN(C(=O)[C@](O)(c4cccc(C(F)(F)F)c4)C(F)(F)F)CC3)CC2)cc1Cl [Example 7-128, 2-chloro-N-methyl-4-{4-[(1-{(2R)-3,3,3-trifluoro-2-hydroxy-2-[3-(trifluoromethyl)phenyl]propanoyl}piperidin-4-yl)methyl]piperidin-1-yl}benzamide]	
83%	7.68	23%	6.52		COc1cccc([C@@](O)(C(=O)N2CCC(CC3CCN(c4ccc(C(=O)N(C)C)c(Cl)c4)CC3)CC2)C(F)(F)C(F)(F)F)c1 [Example 2-89, 2-chloro-N,N-dimethyl-4-[4-({1-[(2R)-3,3,4,4,4-pentafluoro-2-hydroxy-2-{3-methoxyphenyl)butanoyl]piperidin-4-yl}methyl)piperidin-1-yl]benzamide]	
79%	7.96	29%	6.86		CN(C)C(=O)c1ccc(N2CCC(CC3CCN(C(=O)[C@](O)(c4cccc(C#N)c4)C(F)(F)F)CC3)CC2)cc1Cl [Example 2-88, 2-chloro-4-[4-({1-[(2R)-2-(3-cyanophenyl)-3,3,3-trifluoro-2-hydroxy-propanoyl]piperidin-4-yl}methyl)piperidin-1-yl]-N,N-dimethyl-benzamide]	
69%	7.60	33%	6.41		Cc1cc(N2CCC(CC3CCN(C(=O)[C@](O)(c4ccccc4)C(F)(F)F)CC3)CC2)ccc1C(=O)N(C)C [Example 2-155, N,N,2-trimethyl-4-[4-({1-[(2R)-3,3,3-trifluoro-2-hydroxy-2-phenyl-propanoyl]piperidin-4-yl}methyl)piperidin-1-yl]benzamide]	
40%	8.52	0%		NO IP	CC(C)(C)OC(=O)NC1CN(C(=O)c2ccc(N3CCC(CC4CCN(C(=O)[C@](O)(c5cc(Cl)cc(Cl)c5)C(F)(F)F)CC4)CC3)cc2Cl)C1 [Example 4-25, tert-butyl [1-({2-chloro-4-[4-({1-[(2R)-2-(3,5-dichlorophenyl)-3,3,3-trifluoro-2-hydroxypropanoyl]piperidin-4-yl}methyl)piperidin-1-yl]phenyl}carbonyl)azetidin-3-yl]carbamate]	
41%	8.30	0%		NO IP	CN(C)C(=O)c1ccc(N2CCC(CC3CCN(C(=O)[C@](O)(c4cccc(OC5CC5)c4)C(F)(F)F)CC3)CC2)nc1Cl [Example 7-106, 2-chloro-6-{4-[(1-{(2R)-2-[3-(cyclopropyloxy)phenyl]-3,3,3-trifluoro-2-hydroxypropanoyl}piperidin-4-yl)methyl]piperidin-1-yl}-N,N-dimethylpyridine-3-carboxamide]	
40%	6.45	0%		NO IP	CN(C)C(=O)c1ccc(N2CCC(CC3CCN(C(=O)c4c(F)cccc4F)CC3)CC2)cc1Cl [Example 2-8, 2-chloro-4-[4-({1-[(2,6-difluorophenyl)carbonyl]piperidin-4-yl}methyl)piperidin-1-yl]-N,N-dimethyl-benzamide]	
77%	6.65	35%	5.27		CC(C)(C(=O)N1CCC(CC2CCN(c3cccc(S(C)(=O)=O)c3)CC2)CC1)c1ccccc1 [Example 2-73, 1-(2-methyl-2-phenylpropanoyl)-4-({1-[3-(methylsulfonyl)phenyl]piperidin-4-yl}methyl)piperidine]	
91%	5.85	0%		NO IP	COc1cccc([C@@](O)(C(=O)N2CCC(CC3CN(c4ccc(C(=O)N(C)C)c(C5CC5)n4)C3)CC2)C(F)(F)F)c1 [Example 7-15, 2-cyclopropyl-N,N-dimethyl-6-[3-({1-[(2R)-3,3,3-trifluoro-2-hydroxy-2-(3-methoxyphenyl)propanoyl]piperidin-4-yl}methyl)azetidin-1-yl]pyridine-3-carboxamide]	
